Assay results published in EPA's ToxValDB 9.5 (doi:10.2903/j.efsa.2005.102r).
≈ marks a conversion by molar mass, not a printed value.

Experiments:
[1] = test system: Typhlodromus pyri; experiment: LR50; higher = less toxic; conditions: not reported; mortality
[2] = test system: Aphidius rhopalosiphi; experiment: LR50; higher = less toxic; conditions: not reported; mortality
[3] = test system: Canidae; conditions: oral, Dog Other
[4] = test system: Pontoscolex corethrurus; conditions: chronic/long-term; reproduction
[5] = test system: Daphnia magna; conditions: chronic/long-term; duration: 21 days
[6] = test system: Gammarus pulex; conditions: chronic/long-term; duration: 28 days
[7] = test system: Oncorhynchus mykiss
[8] = test system: Tagia sp.; conditions: acute; mortality
[9] = test system: Colinus virginianus; conditions: oral, diet
[10] = test system: Folsomia candida; conditions: chronic/long-term; duration: 28 days
[11] = test system: Anas platyrhynchos; conditions: reproductive, duration: 5 days, oral, feed
[12] = test system: Neomysis kadiakensis
[13] = test system: Rattus norvegicus
[14] = test system: Apis mellifera; conditions: acute, duration: 48 hours, mortality
[15] = acute, duration: 96 hours, mortality

CO/N=C(/C1=NOCCO1)c1ccccc1Oc1ncnc(Oc2ccccc2Cl)c1F [Fluoxastrobin]
LR50 [1]: 122 g/ha | LR50 [2]: 34.1 g/ha | NOAEL ([3]; chronic, duration: 1 years, clinical chemistry): 3 mg/kg-day | NOAEL ([3]; subchronic, duration: 90 days, body weight): 30 mg/kg-day | NOAEL ([3]; subchronic, duration: 90 days, clinical chemistry): 3 mg/kg-day | NOEL [4]: 1.33 mg/kg | NOEC [5]: 0.18 mg/L | NOEC [6]: 0.0316 mg/L | LC50 [7, 15]: 0.435 µg/mL (≈ 0.948 µM) | NOEC ([7]; chronic/long-term, duration: 95 days, other): 0.0286 mg/L | LC50 [8]: > 500 mg/kg | LC50 ([9]; acute, duration: 5 days, mortality): > 966 mg/kg-day | NOEC ([9]; reproduction developmental, duration: 5 days): 151 mg/kg-day | NOEL ([9]; short-term, mortality): 2000 mg/kg-day | NOEC [10]: 5 mg/kg | NOEC [11]: 285 mg/kg-day | LC50 ([11]; mortality): > 2190 mg/kg-day | LC50 [12, 15]: 0.0604 µg/mL (≈ 0.132 µM) | NOEC ([12]; chronic/long-term, duration: 28 days): 0.00061 mg/L | LD50 ([13]; acute, oral, mortality): > 2000 mg/kg | NOAEL ([13]; developmental, development): > 742 mg/kg-day | LD50 ([14]; dermal): > 200 µg/piece | LD50 ([14]; oral, unspecified): > 843 µg/piece
